In patent publication US9567301B2, “Pyrrol-1-yl benzoic acid derivatives useful as myc inhibitors” (Whitehead Institute for Biomedical Research, priority 2012, dated 2017) one finds IC50 and EC50 data, which are given here for 20 compounds.

Experiment [1] addresses c-Myc/Max/Ebox DNA (Homo sapiens, UniProt P01106). The experiment can be described thus: c-Myc/Max/Ebox DNA AlphaScreen assay. The experiment is classed as binding. Further details: An exemplary assay uses full-length human c-Myc and Max proteins; his6 (cleaved yes); made in house. To be noted: c-Myc/Max/Ebox DNA AlphaScreen; NA: inactive under assay conditions; read-out: Biochemical IC50. On the procedure: This protocol was used to generate the biochemical data in Table 2 and FIG. 11. The primary AlphaScreen assay is amenable to 384-well and 1536-well plate formats for HTS. Human his6-c-Myc and his6-Max were used with biotinylated DNA containing a single Ebox sequence (biotin[…]) purchased from MWG Operon. Free c-Myc was generated from his6-c-Myc through thrombin cleavage of the his6 tag. For 384-well plate assays, 10 μL of a 2× solution of free c-Myc (25 nM final), Ni++-coated Acceptor Bead (25 μg/ml final), and biotinylated Ebox oligo (10 nM final) were added to 384-well plates with a Biotek EL406 liquid handler. 100 nL of compounds from stock plates were added by pin transfer using a Janus Workstation (PerkinElmer), allowing the compounds to interact with c-Myc prior to c-Myc binding with Max. In the current assay, DMSO was not allowed to exceed 2% v/v of the assay. 10 μl of 2× master mix containing streptavidin-coated donor beads (25 μg/ml final) and his6-Max (1.25 nM final) were added. AlphaScreen measurements were performed on an Envision 2104 (PerkinElmer) utilizing the manufacturer's protocol. The assay can also be performed in 1536-plate format with 8 μL total volume using two 4 μL additions (instead of […] and 10 μL respectively).
Assays are performed with minor modifications from the manufacturer's protocol (PerkinElmer). Both master mixes were made in room temperature assay buffer (50 mM HEPES, 150 mM NaCl, 0.2% w/v BSA, 0.02% w/v Tween20, 40 μg/ml glycogen, 500 μM DTT, pH 8.0, DTT and glycogen added fresh). Alpha beads were added to respective master solutions and wrapped in foil. All subsequent steps were performed in low light conditions. Solution 1: 2× solution of components with final concentrations of cMyc (25 nM), Ni-coated Acceptor Bead (25 μg/ml), and biotinylated Ebox oligo (10 nM). Solution 2: 2× solution of streptavidin-coated donor beads (25 μg/ml final) and his6-Max (1.25 nM final). […] Solution 1 were added to 384-well plate (AlphaPlate-384, PerkinElmer) with Biotek EL406 liquid handler and the plates were centrifuged at 1000 rpm for 1 minute. 100 nL of compounds from stock plates were added by pin transfer using a Janus Workstation. 10 μL Solution 2 were added with the liquid handler. Plates were sealed with foil to block light exposure and prevent evaporation. Plates were centrifuged at 1000 rpm for 1 minute followed by 2 hour incubation. AlphaScreen measurements were performed on an Envision 2104 utilizing the manufacturer's protocol. Excitation was at 680 nm for donor bead release of singlet oxygen and emission was read with a bandpass filter from 520-620 nm. Glycogen: Roche Diagnostics #10901393001. Plate 1536: Perkin Elmer, 6004350. Plate 384: Perkin Elmer, 6005350. Nickel-His Alpha Beads: 6760619R.
Background: Alpha assays give light when donor and acceptor beads are brought close together.

The test system of experiment [2] is H2171 cells. The experiment can be described thus: Cell viability assay (ATPlite), H2171. The following applies: Homo sapiens, NCI-H2171, 72 h, cell viability, three days, ATPlite; NA: inactive under assay conditions. The experiment is classed as cell-based, human. On the procedure: (§1) This assay was used for the H2171 and MM1S cell data shown in Table 2, and for the Jurkat (an immortalized line of human T lymphocyte cells), Ly1 (OCI-Ly1 human non-Hodgkin lymphoma cell line), Ly4 (OCI-Ly4 human non-Hodgkin lymphoma cell line), H2172 (NCI-H2172 human non-small cell lung cancer cell line), and CA-46 (a human Burkitt's lymphoma cell line) cell data shown in Table 3 and FIG. 12. Cells were counted and adjusted to 60,000 cells/mL. Using a Biotek EL406, 50 μL of cells are media were distributed into 384 well white plates from Thermo. Immediately after plating, compound in DMSO was distributed to plates. For large plate sets, cells were returned to 37° C. incubator while not in use.
(§2) Compounds were added to plates using a 100 nL 384 well pin transfer manifold on a Janus workstation. Stocks were arrayed in 10 point quadruplicate dose response in DMSO stock in 384 well Greiner compound plates. After addition of compound, plates were incubated for three days in a 37° C. incubator.
(§3) Cell viability was read out using ATPlite from Perkin Elmer. Plates were removed from the incubator and brought to room temperature prior to use. Lyophilized powder was resuspended in lysis buffer and diluted 1:2 with DI water. 25 μL of this solution was added to each well using the Biotek liquid handler. Plates were sealed with adherent aluminum seals prior to vortexing and spinning down at 1000 g for 1 minute. Plates were incubated for 15 minutes at room temperature before signal was read on an Envision Plate Reader.
A general note: In ATP-based viability assays light output follows the ATP content of the culture.

The subject of experiment [3] is MM1S cells. The experiment can be described thus: Cell viability assay (ATPlite), MM1S. The experiment is classed as cell-based, human. The following applies: Homo sapiens, MM1.S, 72 h, cell viability, three days, ATPlite; NA: inactive under assay conditions. On the procedure: as §1, §2, §3

What is called IC50 is the concentration needed to halve the response being measured. A word on the EC50: it is the concentration giving half of the maximal effect.

c-Myc/Max/Ebox DNA, sequence (P01106 16-454): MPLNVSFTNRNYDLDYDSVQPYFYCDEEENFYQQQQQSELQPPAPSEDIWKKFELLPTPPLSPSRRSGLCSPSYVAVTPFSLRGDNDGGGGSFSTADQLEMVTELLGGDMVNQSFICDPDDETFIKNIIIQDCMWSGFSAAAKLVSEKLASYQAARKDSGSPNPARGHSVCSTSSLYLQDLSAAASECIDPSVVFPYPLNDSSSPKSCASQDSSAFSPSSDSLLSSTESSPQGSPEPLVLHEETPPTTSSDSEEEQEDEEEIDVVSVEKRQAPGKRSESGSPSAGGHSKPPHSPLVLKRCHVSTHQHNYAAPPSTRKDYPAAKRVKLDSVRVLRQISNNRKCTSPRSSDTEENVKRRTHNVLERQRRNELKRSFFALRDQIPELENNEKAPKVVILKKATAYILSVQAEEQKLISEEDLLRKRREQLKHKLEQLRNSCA

As to `Cc1ccc(C)n1-c1ccc(C(=O)O)cc1O` [Compound 7], in experiment [1], the IC50 amounted to 23.5 µM. In experiment [2], this compound came in with an EC50 of 122 µM.

Turning to `COC(=O)c1ccc(-n2cccc2)cc1O` [Compound 9], the EC50 is 127 µM in experiment [3] and 229 µM in experiment [2]. Turning to `Cc1cc(C(=O)O)ccc1-n1c(C)ccc1C` [Compound 11], in experiment [1], the IC50 was 45.8 µM. In addition, in experiment [2], the EC50 was 60.6 µM. In the case of `CC(=O)Oc1cc(-n2c(C)ccc2C)ccc1C(=O)O` [Compound 66], the EC50 in experiment [3] was found to be 3570 µM; in experiment [2], 67.9 µM.

For the compound `Cc1ccc(C)n1-c1cc(C(=O)N2CCOCC2)ccc1C(=O)O` [Compound 75], the IC50 in experiment [1] was determined as 8.58 µM. In addition, the EC50 in experiment [2] amounted to 114 µM. The like results for `Cc1ccc(C)n1-c1cc(C(=O)N/N=C/c2ncc[nH]2)ccc1C(=O)O` [Compound 81] were, in that order, 2.72 µM and 106 µM. The like results for `COc1ccc(/C=N/NC(=O)c2ccc(C(=O)O)c(-n3c(C)ccc3C)c2)c(OC)c1` [Compound 85] were, in that order, 37.9 µM and 97.3 µM. For the compound `Cc1ccc(C)n1-c1cc(C(=O)N/N=C/c2ccc(N(C)C)cc2)ccc1C(=O)O` [Compound 87], in experiment [1], the IC50 worked out at 31.4 µM. In addition, a half-maximal response in experiment [3] (EC50) required 86.5 µM. The corresponding values for `Cc1ccc(C)n1-c1cc(C(=O)N/N=C/c2c(Cl)ncnc2Cl)ccc1C(=O)O` [Compound 88] are 4.88 µM and 8080 µM. The corresponding values for `Cc1ccc(C)n1-c1cc(C(=O)N/N=C/c2ccc3ccccc3n2)ccc1C(=O)O` [Compound 90] are 17.5 µM and 52.5 µM.

Turning to `Cc1ccc(C)n1-c1cc(C(=O)N/N=C/c2cc(F)ccc2C(F)(F)F)ccc1C(=O)O` [Compound 91], in experiment [1], the IC50 worked out at 3.99 µM. This compound had an EC50 in experiment [3] of 4260 µM. The corresponding values for `Cc1ccc(C)n1-c1cc(C(=O)N/N=C/c2cncnc2)ccc1C(=O)O` [Compound 93] are 5.56 µM and 263 µM.

Turning to `Cc1ccc(C)n1-c1cc(C(=O)N/N=C/c2c[nH]c3cc(F)ccc23)ccc1C(=O)O` [Compound 96], in experiment [1], the IC50 amounted to 34.4 µM. The compound further yielded an EC50 in experiment [2] of 38.1 µM. On to `Cc1cc(C)c2c(=O)c(/C=N/NC(=O)c3ccc(C(=O)O)c(-n4c(C)ccc4C)c3)coc2c1` [Compound 97], for which the IC50 in experiment [1] turned out to be 5.55 µM. Further, the EC50 in experiment [3] came to 1040 µM.

For `COc1ncc(/C=N/NC(=O)c2ccc(C(=O)O)c(-n3c(C)ccc3C)c2)c(OC)n1` [Compound 100], in experiment [1], the IC50 was determined as 7.67 µM. The EC50 in experiment [2] amounted to 266 µM. Consider `Cc1ccc(C)n1-c1cc(C(=O)N/N=C/c2ccc3cccnc3n2)ccc1C(=O)O` [Compound 105], for which the half-inhibitory concentration (IC50) in experiment [1] was 2.97 µM. In addition, the EC50 in experiment [3] is 118 µM. For `Cc1ccc(C)n1-c1cc(C(=O)N/N=C/c2cccc3ncccc23)ccc1C(=O)O` [Compound 106], the IC50 in experiment [1] was found to be 15.1 µM. Moreover, it took 144 µM to reach a half-maximal effect in experiment [2] (EC50).

As to `Cc1ccc(C)n1-c1cc(C(=O)N/N=C/c2cc(F)c(F)c(F)c2)ccc1C(=O)O` [Compound 107], the IC50 in experiment [1] is 9.3 µM. In experiment [2], the EC50 is 32.3 µM. Regarding `CC(=O)OCOC(=O)c1ccc(C(=O)N/N=C/c2c[nH]cn2)cc1-n1c(C)ccc1C` [Compound 108], in experiment [2], the EC50 came out at 0.556 µM. In other words, the sub-micromolar range.

With `CC(=O)OCOC(=O)c1ccc(C(=O)N/N=C/c2ccc(-c3nnn[nH]3)cc2)cc1-n1c(C)ccc1C` [Compound 109], the EC50 came to 9.99 µM in experiment [3] and 1.02 µM in experiment [2].
